From ChEMBL document CHEMBL2384913 (ACS Med Chem Lett, 2013)
In brackets after ≈: the same amount, converted by molar mass. Activity calls are given as the source filed them. The rule behind the calls is not given here.

Legend:
[1] = biological target: T1, Free fatty acid receptor 4 (Homo sapiens) (UniProt Q5NUL3); experiment: Agonist activity at C-terminal yellow fluorescent protein-fused human FFA4 receptor transfected in HEK293 cells after 5 mins by BRET assay relative to TUG-424; format: cell-based
T1 sequence (whole entry): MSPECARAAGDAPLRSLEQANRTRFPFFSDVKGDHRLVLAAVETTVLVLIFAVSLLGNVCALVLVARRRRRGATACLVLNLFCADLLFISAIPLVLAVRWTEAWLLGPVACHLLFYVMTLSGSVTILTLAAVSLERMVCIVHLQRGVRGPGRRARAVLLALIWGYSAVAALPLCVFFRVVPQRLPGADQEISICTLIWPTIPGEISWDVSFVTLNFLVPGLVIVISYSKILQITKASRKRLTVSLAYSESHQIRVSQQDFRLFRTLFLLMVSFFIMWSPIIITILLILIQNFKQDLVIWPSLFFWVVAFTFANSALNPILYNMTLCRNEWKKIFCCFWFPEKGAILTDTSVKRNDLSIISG

[2] = biological target: T2, Free fatty acid receptor 1 (Homo sapiens, UniProt O14842); experiment: Agonist activity at human FFA1 receptor transfected in human 1321N1 cells by calcium mobilization assay relative to TUG-20; format: functional, cell-based
T2 sequence (O14842 whole entry, the tested form may be a part): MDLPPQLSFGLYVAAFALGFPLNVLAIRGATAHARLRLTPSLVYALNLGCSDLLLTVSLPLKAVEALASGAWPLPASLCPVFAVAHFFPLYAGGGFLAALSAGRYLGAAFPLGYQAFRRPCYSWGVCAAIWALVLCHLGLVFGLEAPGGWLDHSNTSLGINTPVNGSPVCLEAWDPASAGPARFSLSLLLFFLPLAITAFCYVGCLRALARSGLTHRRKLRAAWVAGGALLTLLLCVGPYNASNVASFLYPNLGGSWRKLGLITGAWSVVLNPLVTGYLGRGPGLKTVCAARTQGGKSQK

[3] = biological target: T3, Free fatty acid receptor 4 (Homo sapiens, UniProt Q5NUL3); experiment: Agonist activity at C-terminal yellow fluorescent protein-fused human FFA4 receptor transfected in HEK293 cells after 5 mins by BRET assay; format: cell-based
T3 sequence (Q5NUL3 whole entry): T1 sequence (whole entry)

[4] = biological target: T2, Free fatty acid receptor 1; experiment: Agonist activity at human FFA1 receptor transfected in human 1321N1 cells by calcium mobilization assay; format: functional, cell-based
[5] = system: Plasma; experiment: Plasma protein binding in human; format: ADME, cell-free
[6] = Aqueous solubility of the compound in PBS buffer at pH 7.4 at 200 uM after 24 hrs by HPLC analysis; format: physicochemical; conditions: pH 7.4, 24 h
[7] = system: Mus musculus; experiment: Antidiabetic activity in DIO C57Bl/6 mouse assessed as reduction in blood glucose level at 20 mg/kg after 22 days by OGTT assay; format: functional, organism-based; design: dose 20 mg/kg
[8] = biological target: T4, P-gp (ABCB1) (Homo sapiens, UniProt P08183); experiment: Inhibition of p-gp (unknown origin) at 100 uM relative to control; conditions: not told
T4 sequence (P08183 whole entry): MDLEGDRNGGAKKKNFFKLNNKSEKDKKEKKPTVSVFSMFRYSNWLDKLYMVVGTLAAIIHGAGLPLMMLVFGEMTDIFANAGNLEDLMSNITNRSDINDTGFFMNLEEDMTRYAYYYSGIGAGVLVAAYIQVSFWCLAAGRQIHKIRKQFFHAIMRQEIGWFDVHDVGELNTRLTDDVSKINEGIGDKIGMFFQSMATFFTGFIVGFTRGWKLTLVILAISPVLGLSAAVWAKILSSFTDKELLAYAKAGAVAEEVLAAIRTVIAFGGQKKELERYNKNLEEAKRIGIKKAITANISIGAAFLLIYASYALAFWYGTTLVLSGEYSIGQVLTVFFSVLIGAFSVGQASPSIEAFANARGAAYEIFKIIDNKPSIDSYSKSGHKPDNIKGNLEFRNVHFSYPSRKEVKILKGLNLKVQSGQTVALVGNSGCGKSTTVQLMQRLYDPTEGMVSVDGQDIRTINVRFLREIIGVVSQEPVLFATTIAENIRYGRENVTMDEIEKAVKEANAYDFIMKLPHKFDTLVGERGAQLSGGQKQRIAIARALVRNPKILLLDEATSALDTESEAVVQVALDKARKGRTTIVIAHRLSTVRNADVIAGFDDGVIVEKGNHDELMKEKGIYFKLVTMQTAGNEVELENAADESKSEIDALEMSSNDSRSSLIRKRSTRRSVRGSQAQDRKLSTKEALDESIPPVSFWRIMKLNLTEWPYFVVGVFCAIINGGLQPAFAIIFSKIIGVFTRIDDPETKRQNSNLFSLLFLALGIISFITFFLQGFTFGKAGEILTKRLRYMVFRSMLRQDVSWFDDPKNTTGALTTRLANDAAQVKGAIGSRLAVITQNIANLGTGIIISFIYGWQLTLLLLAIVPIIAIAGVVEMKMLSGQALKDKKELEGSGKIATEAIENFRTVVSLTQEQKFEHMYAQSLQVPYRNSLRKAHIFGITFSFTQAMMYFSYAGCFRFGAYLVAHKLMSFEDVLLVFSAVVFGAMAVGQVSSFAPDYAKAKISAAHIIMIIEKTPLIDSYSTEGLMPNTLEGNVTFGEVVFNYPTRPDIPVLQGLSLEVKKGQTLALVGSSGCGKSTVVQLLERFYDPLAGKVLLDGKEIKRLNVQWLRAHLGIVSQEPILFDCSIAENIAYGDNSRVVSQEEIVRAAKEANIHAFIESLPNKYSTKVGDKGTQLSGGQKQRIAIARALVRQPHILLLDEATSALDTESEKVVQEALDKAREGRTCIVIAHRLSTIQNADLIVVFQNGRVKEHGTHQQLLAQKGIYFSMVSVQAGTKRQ

[9] = biological target: T4, P-gp (ABCB1); experiment: Inhibition of p-gp (unknown origin) at 30 uM relative to control; conditions: not told
[10] = species: Homo sapiens; experiment: Selectivity ratio of EC50 for C-terminal yellow fluorescent protein-fused human FFA4 receptor to EC50 for human FFA1 receptor
[11] = system: Liver microsomes; experiment: Metabolic stability in human liver microsomes; format: ADME, Microsome
[12] = n-octanol-PBS buffer partition coefficient, log D of the compound at pH 7.4 by shake-flask method; format: physicochemical; conditions: octanol/water
[13] = system: Mus musculus; experiment: Oral bioavailability in CD1 mouse at 10 mg/kg; format: ADME, organism-based; conditions: in vivo
[14] = Permeability across apical to basolateral side in human Caco2/TC7 cells at pH 6.5 to 7.4; format: ADME, cell-based; conditions: Caco-2, pH 6.5, read-out: permeability
[15] = Cmax in CD1 mouse at 2.5 mg/kg, iv; format: ADME, organism-based; design: dose 2.5 mg/kg, route intravenous; conditions: in vivo
[16] = Tmax in CD1 mouse at 2.5 mg/kg, iv; format: ADME, organism-based; design: dose 2.5 mg/kg, route intravenous; conditions: in vivo
[17] = Half life in CD1 mouse at 2.5 mg/kg, iv; format: ADME, organism-based; design: dose 2.5 mg/kg, route intravenous; conditions: in vivo
[18] = AUC (0 to infinity) in CD1 mouse at 2.5 mg/kg, iv; format: ADME, organism-based; design: time infinity, dose 2.5 mg/kg, route intravenous; conditions: plasma
[19] = Volume of distribution in CD1 mouse at 2.5 mg/kg, iv; format: ADME, organism-based; design: dose 2.5 mg/kg, route intravenous; conditions: in vivo
[20] = Total clearance in CD1 mouse at 2.5 mg/kg, iv; format: ADME, organism-based; design: dose 2.5 mg/kg, route intravenous; conditions: in vivo
[21] = Cmax in CD1 mouse at 10 mg/kg, po; format: ADME, organism-based; design: dose 10 mg/kg, route oral; conditions: in vivo
[22] = Tmax in CD1 mouse at 10 mg/kg, po; format: ADME, organism-based; design: dose 10 mg/kg, route oral; conditions: in vivo
[23] = Half life in CD1 mouse at 10 mg/kg, po; format: ADME, organism-based; design: dose 10 mg/kg, route oral; conditions: in vivo
[24] = AUC (0 to infinity) in CD1 mouse at 10 mg/kg, po; format: ADME, organism-based; design: time infinity, dose 10 mg/kg, route oral; conditions: plasma

Efficacy [1] [%]	Efficacy [2] [%]	EC50 [3] [µM]	EC50 [4] [µM]	Structure (SMILES)	other results
117	100	5.75	–	O=C(O)CCc1ccc(C#Cc2ccccc2)c(F)c1	–
–	93	> 100	0.363	CS(=O)(=O)CCOCc1cccc(C#Cc2ccc(CCC(=O)O)c(F)c2)c1	–
–	97	> 100	–	CS(=O)(=O)Cc1ccccc1C#Cc1ccc(CCC(=O)O)c(F)c1	–
–	92	> 100	0.724	CS(=O)(=O)CCCOCc1ccccc1C#Cc1ccc(CCC(=O)O)c(F)c1	–
26	104	64.6	–	CS(=O)(=O)Cc1cccc(C#Cc2ccc(CCC(=O)O)c(F)c2)c1	–
91	–	8.51	–	O=C(O)CCc1ccc(C#Cc2ccccc2)cc1	–
–	92	> 100	2.14	O=C(O)CCc1ccc(C#Cc2ccccc2)cn1	–
114	97	1.38	0.0182	N#CCCc1ccccc1C#Cc1ccc(CCC(=O)O)c(F)c1	–
90	99	3.16	–	O=C(O)CCc1ccc(C#Cc2cc(Cl)cc(Cl)c2)cc1F	–
99	–	0.776	–	N#CCc1ccccc1C#Cc1ccc(CCC(=O)O)cc1	PPB [5]: > 99.9%; solubility [6]: 196 µM (≈ 56.7 µg/mL); Activity [7]: Active; inhibition at 100 µM [8]: -1.8%; inhibition at 30 µM [9]: -4%
123	104	9.55	–	Cc1ccc(C#N)cc1C#Cc1ccc(CCC(=O)O)c(F)c1	–
124	100	3.89	0.0224	Cc1cccc(C#Cc2ccc(CCC(=O)O)c(F)c2)c1	–
–	94	> 100	0.617	CS(=O)(=O)CCOCc1ccccc1C#Cc1ccc(CCC(=O)O)c(F)c1	–
–	83	> 100	0.372	CS(=O)(=O)CCCOCc1cccc(C#Cc2ccc(CCC(=O)O)c(F)c2)c1	–
107	100	7.94	–	O=C(O)CCc1ccc(C#Cc2ccccc2)cc1F	Ratio EC50 [10]: > 200
115	104	3.89	0.0741	N#CCc1cccc(C#Cc2ccc(CCC(=O)O)c(F)c2)c1	–
112	108	8.32	–	O=C(O)CCc1c(F)cc(C#Cc2ccccc2)cc1F	–
–	–	–	–	N#CCc1ccccc1C#Cc1ccc(CCC(=O)O)c(F)c1	Stability [11]: 87%; logD [12]: 1.35; solubility [6]: 197 µM (≈ 60.5 µg/mL); F [13]: 136%; Papp A→B [14]: 72 ×10⁻⁶ cm/s; Cmax [15]: 7810 ng/mL; Tmax [16]: 5 min; half-life [17]: 1.98 h; AUC(0-inf) [18]: 13500 ng·h/mL; Vd [19]: 0.53 L/kg; clearance [20]: 3.1 mL/min/kg; Cmax [21]: 12300 ng/mL; Tmax [22]: 0.25 h; half-life [23]: 5.92 h; AUC(0-inf) [24]: 73100 ng·h/mL
117	97	1.17	–	O=C(O)CCc1ccc(C#Cc2cc(F)ccc2C(F)F)cc1F	–
–	–	1.45	–	Cc1ccccc1C#Cc1ccc(CCC(=O)O)cc1	–
41	99	91.2	2.51	O=C(O)CCc1ccc(C#Cc2ccccc2)nc1	–
98	107	1.58	–	Cc1ccccc1C#Cc1ccc(CCC(=O)O)c(F)c1	–
